Test results published in the NIST ThermoML archive (doi:10.1021/je050050p).

Test: xn = mol fraction of the nth substance listed
Conditions: Liquid, Vibrating tube method

CN(C)C=O [dimethylformamide] + O=C=O
Conditions | mass density [kg/m3]
342.93 K, 22027 kPa, x2 = 0.2876 | 930.22
342.93 K, 23002 kPa, x2 = 0.2876 | 931.1
342.93 K, 24027 kPa, x2 = 0.2876 | 932.06
342.93 K, 25009 kPa, x2 = 0.2876 | 932.97
342.94 K, 7029 kPa, x2 = 0.4502 | 913.19
342.94 K, 8013 kPa, x2 = 0.4502 | 914.64
342.94 K, 9011 kPa, x2 = 0.4502 | 916.09
342.94 K, 9055 kPa, x2 = 0.4068 | 917.41
342.94 K, 9984 kPa, x2 = 0.4068 | 918.63
342.94 K, 9999 kPa, x2 = 0.4502 | 917.51
342.94 K, 11025 kPa, x2 = 0.4502 | 918.98
342.94 K, 11061 kPa, x2 = 0.4068 | 920.01
342.94 K, 11996 kPa, x2 = 0.4068 | 921.23
342.94 K, 12004 kPa, x2 = 0.4502 | 920.36
342.94 K, 13007 kPa, x2 = 0.4502 | 921.76
342.94 K, 13050 kPa, x2 = 0.4068 | 922.57
342.94 K, 13993 kPa, x2 = 0.4502 | 923.08
342.94 K, 14076 kPa, x2 = 0.4068 | 923.82
342.94 K, 15011 kPa, x2 = 0.4068 | 925
342.94 K, 15025 kPa, x2 = 0.4502 | 924.49
342.94 K, 16021 kPa, x2 = 0.4068 | 926.2
342.94 K, 16028 kPa, x2 = 0.4502 | 925.84
342.94 K, 17002 kPa, x2 = 0.4502 | 927.13
342.94 K, 17029 kPa, x2 = 0.4068 | 927.42
342.94 K, 18001 kPa, x2 = 0.4068 | 928.58
342.94 K, 18035 kPa, x2 = 0.4502 | 928.51
342.94 K, 19023 kPa, x2 = 0.4502 | 929.75
342.94 K, 19026 kPa, x2 = 0.4068 | 929.79
342.94 K, 20023 kPa, x2 = 0.4502 | 931
342.94 K, 20073 kPa, x2 = 0.4068 | 931.01
342.94 K, 21008 kPa, x2 = 0.4068 | 932.09
342.94 K, 21013 kPa, x2 = 0.4502 | 932.27
342.94 K, 22005 kPa, x2 = 0.4068 | 933.21
342.94 K, 22036 kPa, x2 = 0.4502 | 933.51
342.94 K, 22992 kPa, x2 = 0.4068 | 934.31
342.94 K, 23032 kPa, x2 = 0.4502 | 934.76
342.94 K, 24003 kPa, x2 = 0.4502 | 935.89
342.94 K, 24049 kPa, x2 = 0.4068 | 935.49
342.94 K, 25041 kPa, x2 = 0.4502 | 937.14
342.94 K, 25062 kPa, x2 = 0.4068 | 936.61
352.81 K, 11994 kPa, x2 = 0.6235 | 863.79
352.81 K, 13017 kPa, x2 = 0.6235 | 868.11
352.81 K, 14003 kPa, x2 = 0.6235 | 871.85
352.81 K, 15051 kPa, x2 = 0.6235 | 875.54
352.81 K, 16021 kPa, x2 = 0.6235 | 878.85
352.81 K, 17011 kPa, x2 = 0.6235 | 882.12
352.81 K, 18025 kPa, x2 = 0.6235 | 885.31
352.81 K, 19034 kPa, x2 = 0.6235 | 888.42
352.81 K, 20027 kPa, x2 = 0.6235 | 891.37
352.81 K, 20969 kPa, x2 = 0.6235 | 894.02
352.81 K, 22044 kPa, x2 = 0.6235 | 897.02
352.81 K, 22987 kPa, x2 = 0.6235 | 899.54
352.81 K, 24010 kPa, x2 = 0.6235 | 902.21
352.81 K, 25062 kPa, x2 = 0.6235 | 904.9
352.86 K, 16031 kPa, x2 = 0.8091 | 799.4
352.86 K, 17002 kPa, x2 = 0.8091 | 806.61
352.86 K, 17024 kPa, x2 = 0.9311 | 684.5
352.86 K, 18005 kPa, x2 = 0.9311 | 702.67
352.86 K, 18047 kPa, x2 = 0.8091 | 814.2
352.86 K, 19028 kPa, x2 = 0.9311 | 718.94
352.86 K, 19050 kPa, x2 = 0.8091 | 820.88
352.86 K, 20001 kPa, x2 = 0.9311 | 732.41
352.86 K, 20005 kPa, x2 = 0.8091 | 827.13
352.86 K, 21006 kPa, x2 = 0.9311 | 744.94
352.86 K, 21045 kPa, x2 = 0.8091 | 833.27
352.86 K, 22024 kPa, x2 = 0.9311 | 756.39
352.86 K, 22052 kPa, x2 = 0.8091 | 839.08
352.86 K, 23012 kPa, x2 = 0.9311 | 766.47
352.86 K, 23029 kPa, x2 = 0.8091 | 844.25
352.86 K, 23999 kPa, x2 = 0.9311 | 775.83
352.86 K, 24015 kPa, x2 = 0.8091 | 849.31
352.86 K, 25019 kPa, x2 = 0.9311 | 784.81
352.86 K, 25051 kPa, x2 = 0.8091 | 854.32
352.87 K, 7031 kPa, x2 = 0.2876 | 902.49
352.87 K, 8016 kPa, x2 = 0.2876 | 903.63
352.87 K, 9024 kPa, x2 = 0.2876 | 904.79
352.87 K, 10008 kPa, x2 = 0.4268 | 903.63
352.87 K, 10027 kPa, x2 = 0.2876 | 905.96
352.87 K, 11005 kPa, x2 = 0.4268 | 905.13
352.87 K, 11011 kPa, x2 = 0.2876 | 907.05
352.87 K, 12022 kPa, x2 = 0.2876 | 908.2
352.87 K, 12055 kPa, x2 = 0.4268 | 906.66
352.87 K, 13022 kPa, x2 = 0.2876 | 909.31
352.87 K, 13027 kPa, x2 = 0.4268 | 908.06
352.87 K, 13995 kPa, x2 = 0.4268 | 909.43
352.87 K, 14004 kPa, x2 = 0.2876 | 910.39
352.87 K, 15002 kPa, x2 = 0.4268 | 910.84
352.87 K, 15013 kPa, x2 = 0.2876 | 911.48
352.87 K, 16013 kPa, x2 = 0.2876 | 912.56
352.87 K, 16029 kPa, x2 = 0.4268 | 912.27
352.87 K, 17030 kPa, x2 = 0.4268 | 913.63
352.87 K, 17044 kPa, x2 = 0.2876 | 913.64
352.87 K, 18010 kPa, x2 = 0.4268 | 914.96
352.87 K, 18012 kPa, x2 = 0.2876 | 914.66
352.87 K, 19003 kPa, x2 = 0.4268 | 916.29
352.87 K, 19015 kPa, x2 = 0.2876 | 915.7
352.87 K, 20024 kPa, x2 = 0.2876 | 916.74
352.87 K, 20032 kPa, x2 = 0.4268 | 917.62
352.87 K, 21004 kPa, x2 = 0.2876 | 917.74
352.87 K, 21047 kPa, x2 = 0.4268 | 918.93
352.87 K, 22005 kPa, x2 = 0.4268 | 920.15
352.87 K, 22030 kPa, x2 = 0.2876 | 918.79
352.87 K, 23001 kPa, x2 = 0.4268 | 921.41
352.87 K, 23027 kPa, x2 = 0.2876 | 919.77
352.87 K, 24014 kPa, x2 = 0.4268 | 922.68
352.87 K, 24021 kPa, x2 = 0.2876 | 920.77
352.87 K, 25022 kPa, x2 = 0.2876 | 921.74
352.87 K, 25024 kPa, x2 = 0.4268 | 923.93
362.68 K, 13997 kPa, x2 = 0.6235 | 842.98
362.68 K, 15019 kPa, x2 = 0.6235 | 847.62
362.68 K, 16021 kPa, x2 = 0.6235 | 851.83
362.68 K, 16992 kPa, x2 = 0.6235 | 855.82
362.68 K, 18022 kPa, x2 = 0.6235 | 859.78
362.68 K, 19000 kPa, x2 = 0.6235 | 863.4
362.68 K, 20047 kPa, x2 = 0.6235 | 867.1
362.68 K, 21057 kPa, x2 = 0.6235 | 870.49
362.68 K, 22005 kPa, x2 = 0.6235 | 873.58
362.68 K, 22981 kPa, x2 = 0.6235 | 876.69
362.68 K, 24005 kPa, x2 = 0.6235 | 879.78
362.68 K, 24998 kPa, x2 = 0.6235 | 882.71
362.73 K, 18005 kPa, x2 = 0.9311 | 641.86
362.73 K, 19024 kPa, x2 = 0.9311 | 662.81
362.73 K, 20021 kPa, x2 = 0.9311 | 680.44
362.73 K, 21028 kPa, x2 = 0.9311 | 696.02
362.73 K, 22008 kPa, x2 = 0.9311 | 709.54
362.73 K, 23017 kPa, x2 = 0.9311 | 722.12
362.73 K, 24029 kPa, x2 = 0.9311 | 733.65
362.73 K, 25019 kPa, x2 = 0.9311 | 744.01
362.75 K, 8032 kPa, x2 = 0.2876 | 891.2
362.75 K, 9018 kPa, x2 = 0.2876 | 892.47
362.75 K, 9986 kPa, x2 = 0.2876 | 893.65
362.75 K, 10994 kPa, x2 = 0.2876 | 894.89
362.75 K, 11002 kPa, x2 = 0.4268 | 890.57
362.75 K, 12000 kPa, x2 = 0.2876 | 896.09
362.75 K, 12008 kPa, x2 = 0.4268 | 892.17
362.75 K, 13010 kPa, x2 = 0.4268 | 893.74
362.75 K, 13037 kPa, x2 = 0.2876 | 897.35
362.75 K, 14000 kPa, x2 = 0.4268 | 895.32
362.75 K, 14023 kPa, x2 = 0.2876 | 898.48
362.75 K, 15027 kPa, x2 = 0.4268 | 896.84
362.75 K, 15039 kPa, x2 = 0.2876 | 899.66
362.75 K, 16011 kPa, x2 = 0.2876 | 900.77
362.75 K, 16015 kPa, x2 = 0.4268 | 898.33
362.75 K, 17017 kPa, x2 = 0.4268 | 899.81
362.75 K, 17019 kPa, x2 = 0.2876 | 901.92
362.75 K, 18012 kPa, x2 = 0.2876 | 903.04
362.75 K, 18013 kPa, x2 = 0.4268 | 901.24
362.75 K, 19006 kPa, x2 = 0.2876 | 904.14
362.75 K, 19024 kPa, x2 = 0.4268 | 902.72
362.75 K, 20028 kPa, x2 = 0.4268 | 904.14
362.75 K, 20035 kPa, x2 = 0.2876 | 905.27
362.75 K, 20994 kPa, x2 = 0.2876 | 906.3
362.75 K, 21039 kPa, x2 = 0.4268 | 905.51
362.75 K, 22014 kPa, x2 = 0.4268 | 906.89
362.75 K, 22029 kPa, x2 = 0.2876 | 907.43
362.75 K, 23004 kPa, x2 = 0.2876 | 908.45
362.75 K, 23027 kPa, x2 = 0.4268 | 908.24
362.75 K, 24034 kPa, x2 = 0.2876 | 909.57
362.75 K, 25002 kPa, x2 = 0.2876 | 910.55
362.79 K, 18033 kPa, x2 = 0.8091 | 777.33
362.79 K, 19005 kPa, x2 = 0.8091 | 784.9
362.79 K, 20003 kPa, x2 = 0.8091 | 792.49
362.79 K, 21014 kPa, x2 = 0.8091 | 799.75
362.79 K, 22017 kPa, x2 = 0.8091 | 806.5
362.79 K, 23043 kPa, x2 = 0.8091 | 813.1
362.79 K, 24052 kPa, x2 = 0.8091 | 819.28
362.79 K, 25083 kPa, x2 = 0.8091 | 825.05
